Test results as given in patent US7989451B2, “Tricyclic 1,2,4-triazine oxides and compositions for therapeutic use in cancer treatments” (Auckland Uniservices Limited, priority 2005, dated 2011).
Where two headings read alike, the source gives them in different places.

What was measured:
[1] = tested on: human cervical carcinoma SiHa; test: Proliferation assay (IC50) under aerobic and hypoxic conditions, SiHa; type: cell-based; details: for IC50: Homo sapiens, 4 h drug exposure, sulforhodamine B; for HCR: hypoxic cytotoxicity ratio = IC50 aerobic/IC50 hypoxic
Procedure, shortened: (§1)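 HT29 (1100) and SiHa (1500) cells in αMEM with 17 mM glucose and 100 μM 2′-dCyd, exposed 4 h at 37 °C to 3-fold dilutions under 20% O2 or anoxia (<0.001% O2). Regrowth 5 (oxic) or 6 (anoxic) days; IC50 by sulforhodamine B. HCR = IC50 aerobic/IC50 hypoxic.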

[2] = tested on: human colon carcinoma HT29; test: Proliferation assay (IC50) under aerobic and hypoxic conditions, HT29; type: cell-based; details: for IC50: Homo sapiens, 4 h drug exposure, sulforhodamine B; for HCR: hypoxic cytotoxicity ratio = IC50 aerobic/IC50 hypoxic
Procedure, shortened: as §1

[3] = hypoxic (anaerobic chamber, <0.001% O2), then 6 days growth, read-out: IC50 (μM) hypoxic
[4] = oxic (20% O2), then 5 days growth, read-out: IC50 (μM) oxic
[5] = HT-29, hypoxic (anaerobic chamber, <0.001% O2), then 6 days growth, read-out: IC50 (μM) hypoxic
[6] = HT-29, oxic (20% O2), then 5 days growth, read-out: IC50 (μM) oxic

| SMILES | melting point | IC50 [1, 3] | IC50 [1, 4] | HCR [1] | IC50 [2, 5] | IC50 [2, 6] | HCR [2] |
| --- | --- | --- | --- | --- | --- | --- | --- |
| [O-][n+]1nc(NCCCN2CCOCC2)[n+]([O-])c2cc3c(cc21)CCO3 [Compound 212, N-[3-(4-Morpholinyl)propyl]-7,8-dihydrofuro[2,3-g][1,2,4]benzotriazin-3-amine 1,4-Dioxide] | 186 to 189 °C | 29.4 ± 4.2 µM | 355 ± 240 µM | 14 ± 10 | 48.6 ± 12.2 µM | 225 ± 136 µM | 6 ± 4 |
| [O-][n+]1nc(NCCCO)[n+]([O-])c2cc3c(cc21)CCC3 [Compound 51, 3-[(1,4-Dioxido-7,8-dihydro-6H-indeno[5,6-e][1,2,4]triazin-3-yl)amino]-1-propanol] | 182 to 184 °C | 20.5 ± 3.3 µM | 455 ± 25 µM | 22 ± 1 | > 50 µM | 1610 µM | – |
| COCCCN(C)CCNc1n[n+]([O-])c2cc3c(cc2[n+]1[O-])CCC3 [Compound 33, N^1-(1,4-Dioxido-7,8-dihydro-6H-indeno[5,6-e][1,2,4]triazin-3-yl)-N^2-(3-methoxypropyl)-N^2-methyl-1,2-ethanediamine] | 129 to 131 °C | 2 ± 1.1 µM | 152 ± 38 µM | 92 ± 30 | 6.3 ± 2.1 µM | 315 ± 84 µM | 52 ± 4 |
| [O-][n+]1nc(NCCCCN2CCOCC2)[n+]([O-])c2cc3c(cc21)CCC3 [Compound 63, N-[4-(4-Morpholinyl)butyl]-7,8-dihydro-6H-indeno[5,6-e][1,2,4]triazin-3-amine 1,4-Dioxide] | 140 to 141 °C | 5.3 ± 0.4 µM | 239 ± 22 µM | 46 ± 8 | 14.2 µM | 325 ± 70 µM | 28 |
| CCc1n[n+]([O-])c2cc3c(cc2[n+]1[O-])CC(CO)C3 (centres unmarked) [Compound 136, (3-Ethyl-1,4-dioxido-7,8-dihydro-6H-indeno[5,6-e][1,2,4]triazin-7-yl)methanol] | 157 to 158 °C | 6.5 ± 0.2 µM | 314 ± 60 µM | 48 ± 8 | 17.1 µM | 774 ± 8 µM | 45 |
| CC1Cc2cc3c(cc2C1)[n+]([O-])c(NCCCN1CCOCC1)n[n+]3[O-] (centres unmarked) [Compound 99, 7-Methyl-N-[3-(4-morpholinyl)propyl]-7,8-dihydro-6H-indeno[5,6-e][1,2,4]triazin-3-amine 1,4-Dioxide] | 161 to 163 °C | 8.4 ± 3.2 µM | 415 ± 133 µM | 50 ± 3 | 19 ± 6 µM | 459 ± 93 µM | 25 ± 2 |
| CCCN(CCC)CCNc1nc2ccc3c(c2[n+]([O-])n1)CCC3 [Compound 11, N^1-(1-Oxido-8,9-dihydro-7H-indeno[5,4-e][1,2,4]triazin-3-yl)-N^2,N^2-dipropyl-1,2-ethanediamine] | 133 to 135 °C | 3.3 ± 0.3 µM | 74 ± 27 µM | 23 ± 10 | 12.4 µM | 99 ± 9 µM | 7 |
| CN(C)CCNc1n[n+]([O-])c2cc3c(cc2[n+]1[O-])CCO3 [Compound 198, N^1-(1,4-Dioxido-6,7-dihydrofuro[3,2-g][1,2,4]benzotriazin-3-yl)-N^2,N^2-dimethyl-1,2-ethanediamine] | 149 to 151 °C | 0.3 ± 0.02 µM | 36 ± 10 µM | 87 ± 9 | 2.4 ± 0.1 µM | 61 ± 6 µM | 23 ± 0.2 |
| CCN(CC)CCNc1n[n+]([O-])c2cc3c(cc2[n+]1[O-])OCC3 [Compound 210, N^1-(1,4-Dioxido-7,8-dihydrofuro[2,3-g][1,2,4]benzotriazin-3-yl)-N^2,N^2-diethyl-1,2-ethanediamine] | 187 to 190 °C | 3.4 ± 0.7 µM | 376 ± 10 µM | 122 ± 25 | 9.6 ± 3.6 µM | 708 ± 178 µM | 113 ± 53 |
| [O-][n+]1nc(NCCCN2CCOCC2)[n+]([O-])c2cc3c(cc21)OCC3 [Compound 200, N-[3-(4-Morpholinyl)propyl]-6,7-dihydrofuro[3,2-g][1,2,4]benzotriazin-3-amine 1,4-Dioxide] | 145 to 148 °C | 3.4 ± 0.8 µM | 90 ± 24 µM | 28 ± 6 | 22 ± 4.2 µM | 177 ± 80 µM | 8 ± 3 |
| COC1CN(CCCNc2n[n+]([O-])c3cc4c(cc3[n+]2[O-])CCC4)C1 [Compound 55, N-[3-(3-Methoxy-1-azetidinyl)propyl]-7,8-dihydro-6H-indeno[5,6-e][1,2,4]triazin-3-amine 1,4-Dioxide] | 150 to 152 °C | 1.4 ± 0.4 µM | 99 ± 14 µM | 83 ± 34 | 2.4 ± 0.3 µM | 233 ± 19 µM | 102 ± 22 |
| [O-][n+]1nc(NCCN2CCCCC2)[n+]([O-])c2ccc3c(c21)CCC3 [Compound 13, N-[2-(1-Piperidinyl)ethyl]-8,9-dihydro-7H-indeno[5,4-e][1,2,4]triazin-3-amine 1,4-Dioxide] | 138 to 141 °C | 1 ± 0.1 µM | 52 ± 8 µM | 51 ± 1 | 4.9 ± 0.6 µM | 251 ± 24 µM | 53 ± 11 |
| COC1CCN(CCNc2n[n+]([O-])c3cc4c(cc3[n+]2[O-])CCC4)CC1 [Compound 43, N-[2-(4-Methoxy-1-piperidinyl)ethyl]-7,8-dihydro-6H-indeno[5,6-e][1,2,4]triazin-3-amine 1,4-Dioxide] | 148 to 151 °C | 1.2 ± 0.1 µM | 91 ± 3 µM | 78 ± 11 | 3.5 ± 0.3 µM | 187 ± 98 µM | 56 ± 33 |
| [O-][n+]1nc(NCCCN2CCOCC2)[n+]([O-])c2cc3c(cc21)CCC3 [Compound 61, N-[3-(4-Morpholinyl)propyl]-7,8-dihydro-6H-indeno[5,6-e][1,2,4]triazin-3-amine 1,4-Dioxide] | 158 to 160 °C | 8.8 ± 1.7 µM | 357 ± 35 µM | 44 ± 12 | 21 ± 8 µM | 385 ± 14 µM | 20 ± 5 |
| [O-][n+]1nc(NCCN2CCCCC2)[n+]([O-])c2cc3c(cc21)CCC3 [Compound 37, N-[2-(1-Piperidinyl)ethyl]-7,8-dihydro-6H-indeno[5,6-e][1,2,4]triazin-3-amine 1,4-Dioxide] | 165 to 168 °C | 1.3 ± 0.4 µM | 101 ± 25 µM | 143 | 5.8 ± 2.9 µM | 186 ± 58 µM | 49 ± 35 |
| CCN(CC)CCNc1n[n+]([O-])c2c3c(ccc2[n+]1[O-])CCC3 [Compound 9, N^1,N^1-Diethyl-N^2-(1,4-dioxido-8,9-dihydro-7H-indeno[5,4-e][1,2,4]triazin-3-yl)-1,2-ethanediamine] | 138 to 141 °C | 0.9 ± 0.2 µM | 59 ± 4 µM | 64 ± 4 | 4.2 ± 1.5 µM | 72 ± 22 µM | 17 ± 5 |
| [O-][n+]1nc(CCCN2CCOCC2)[n+]([O-])c2cc3c(cc21)CCO3 [Compound 216, 3-[3-(4-Morpholinyl)propyl]-7,8-dihydrofuro[2,3-g][1,2,4]benzotriazine 1,4-Dioxide] | 150 to 154 °C | 5.05 ± 0.01 µM | 216 µM | 43 | 8.9 ± 0.4 µM | 218 ± 54 µM | 25 ± 6 |
| Nc1n[n+]([O-])c2cc3c(cc2[n+]1[O-])CCC3 [Compound 20, 7,8-Dihydro-6H-indeno[5,6-e][1,2,4]triazin-3-amine 1,4-Dioxide] | 190 to 195 °C | 8.3 ± 0.4 µM | 253 ± 30 µM | 31 ± 5 | 15 ± 6 µM | 387 ± 108 µM | 27 ± 2 |
